Source: patent US20220370556A1, “Method of Treatment” (Volution Immuno Pharmaceuticals SA, priority 2019, published 2022)

What was measured:
[1] = biological target: T1, nomacopan (EV576, OmCI protein, Coversin), Ornithodoros moubata, mature form, amino acids 19 to 168 of SEQ ID NO: 2 (SEQ ID NO: 4) (Ornithodoros moubata, UniProt Q5YD59); test: Fluorescence titration of LTB4 binding to nomacopan; details: 100 nM nomacopan in PBS, 20° C., excitation 280 nm, emission 340 nm
T1 sequence (Q5YD59 19-168): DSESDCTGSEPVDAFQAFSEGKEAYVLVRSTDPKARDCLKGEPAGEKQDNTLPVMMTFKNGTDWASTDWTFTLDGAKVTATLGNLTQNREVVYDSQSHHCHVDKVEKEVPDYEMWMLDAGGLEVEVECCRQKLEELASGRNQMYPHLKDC
Text: The ability of a nomacopan-type protein to bind LTB4 may be determined by standard in vitro assays known in the art, for example by means of a competitive ELISA between nomacopan and anti-LTB4 antibody competing for binding to labelled LTB4, by isothermal titration calorimetry or by fluorescence titration. […] For example, binding activity for LTB4 (Caymen Chemicals, Ann Arbor, Mich., USA) in phosphate buffered saline (PBS) can be quantified in a spectrofluorimeter e.g. a LS 50 B spectrofluorimeter (Perkin-Elmer, Norwalk, Conn., USA). This may be carried out by may be carried out as follows:
Purified 100 nM solutions of nomacopan, in 2 mL PBS were applied in a quartz cuvette (10 mm path length; Hellma, Mühlheim, Germany) equipped with a magnetic stirrer.
Temperature was adjusted to 20° C. and, after equilibrium was reached, protein Tyr/Trp fluorescence was excited at 280 nm (slit width: 15 nm). The fluorescence emission was measured at 340 nm (slit width: 16 nm) corresponding to the emission maximum. A ligand solution of 30 μM LTB4 in PBS was added step-wise, up to a maximal volume of 20 μL (1% of the whole sample volume), and after 30 s incubation steady state fluorescence was measured. […]

[2] = biological target: Human BLT1 G-protein coupled receptor; details: high affinity receptor, ref. [12]; cited from earlier work
[3] = biological target: Human BLT2 G-protein coupled receptor; details: ref. [13]; cited from earlier work

CCCCC/C=C\C[C@@H](O)/C=C/C=C/C=C\[C@@H](O)CCCC(=O)O [LTB4, Leukotriene B4]
Kd [1]: 0.1 to 0.3 nM
Kd [2]: 0.39 to 1.5 nM
Kd [3]: 23 nM
